Measured values: patent publication US9296774B2, “Halogenated dideoxy sugar derivates, preparation method and application thereof” (Suzhou Harmony Biotechnology Co., Ltd., priority 2009, dated 2016)
Entries after “also recorded” stand apart in the source; their conditions may differ.

Key:
in vivo [1] = conditions: mouse, po
in vivo [2] = conditions: mouse, ip
B16 malignant melanoma = assay: Mouse transplant tumor, B16 malignant melanoma; conditions: for Inhibition of tumor growth (%) / Weight of tumor / weight end / weight start: B16, 125 mg/kg once a day for 7 days; for weight end: body weight at end; for weight start: body weight at start; for inhibitive effect on mouse transplant tumor (in words): B16 malignant melanoma, 125 mg/kg
Method: (§1) Saline solution was used as a control. The positive group CTX was treated with the compounds at an amount of 0.4 ml/20 g. The compounds were applied once a day for consecutive 7 days.

[3] = system: MX-1 human breast cancer cells; assay: Mouse transplant tumor, MX-1 human breast cancer; conditions: for inhibitive effect on mouse transplant tumor (in words): 125 mg/kg; for Inhibition of tumor growth / Weight of tumor / weight end / weight start: 125 mg/kg once a day for 7 days; for weight end: animal weight at end; for weight start: animal weight at start;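 for all read-outs here: mice given saline served as the control group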
Method: as §1

[4] = system: MGC human stomach cancer cells; assay: Mouse transplant tumor, MGC human stomach cancer; conditions: for inhibitive effect on mouse transplant tumor (in words): 125 mg/kg; for Inhibition of tumor growth / Weight of tumor / weight end / weight start: 125 mg/kg once a day for 7 days; for weight end: animal weight at end; for weight start: animal weight at start;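 for all read-outs here: control group received saline vehicle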
Method: Saline solution was used as a control. The positive group CTX was treated with the compounds at an amount of 0.4 ml/20 g. The compounds were applied once a day for consecutive 7 days. The animals were then compensated.

05-732 human bone tumor = assay: Mouse transplant tumor, 05-732 human osteosarcoma; conditions: for inhibitive effect on mouse transplant tumor (in words): 05-732 human bone tumor, 125 mg/kg; for Inhibtion of tumor growth / Weight of tumor / weight end / weight start: 05-732 human osteosarcoma, 125 mg/kg once a day for 7 days; for weight end: animal weight at end; for weight start: animal weight at start
Method: as §1

[5] = system: AsPc human pancreatic cancer cells; assay: Mouse transplant tumor, AsPc human pancreatic cancer; conditions: for inhibitive effect on mouse transplant tumor (in words): 125 mg/kg; for Inhibition of tumor growth / Weight of tumor / weight end / weight start: 125 mg/kg once a day for 7 days; for weight end: animal weight at end; for weight start: animal weight at start;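 for all read-outs here: Saline-treated mice served as the control group, with a CTX-treated group as positive reference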
Method: as §1

[6] = system: anaplastic thyroid carcinoma TA-K cells; assay: Mouse transplant tumor, human anaplastic thyroid carcinoma TA-K; conditions: for inhibitive effect on mouse transplant tumor (in words): anaplastic thyroid carcinoma TA-K, 125 mg/kg; for Inhibition of tumor growth / Weight of tumor / weight end / weight start: human anaplastic thyroid carcinoma TA-K, 125 mg/kg once a day for 7 days; for weight end: animal weight at end; for weight start: animal weight at start;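 for all read-outs here: Tumor-bearing mice compared against a saline-treated control group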
Method: as §1

SMILES | LD50 (in vivo [1]) [mg/kg] | LD50 (in vivo [2]) [mg/kg] | Inhibition of tumor growth (%) (B16 malignant melanoma) | Weight of tumor (B16 malignant melanoma) | weight end (B16 malignant melanoma) | weight start (B16 malignant melanoma) | inhibitive effect on mouse transplant tumor (in words) (B16 malignant melanoma) | inhibitive effect on mouse transplant tumor (in words) [3] | Inhibition of tumor growth [3] | Weight of tumor [3] | weight end [3] | weight start [3] | inhibitive effect on mouse transplant tumor (in words) [4] | Inhibition of tumor growth [4] | Weight of tumor [4] | weight end [4] | weight start [4] | inhibitive effect on mouse transplant tumor (in words) (05-732 human bone tumor) | Inhibtion of tumor growth (05-732 human bone tumor) | Weight of tumor (05-732 human bone tumor) | other results
CC(=O)OCC1OC(Br)C(Br)CC1OC(C)=O (single isomer, unassigned) [Compound 3] | 2320 | 359 | 76.8 | 0.6 | 18.3 | 18.2 | good inhibitive effect; also recorded: significant effect | good inhibitive effect; also recorded: significant effect | 75.8 | 0.6 | 18.3 | 18.2 | good inhibitive effect; also recorded: significant effect | 72.5 | 0.7 | 18.3 | 18.2 | good inhibitive effect; also recorded: significant effect | 71.5 | 0.8 | weight end (05-732 human bone tumor): 18.3; weight start (05-732 human bone tumor): 18.2; inhibitive effect on mouse transplant tumor (in words) [5]: good inhibitive effect; also recorded: significant effect; Inhibition of tumor growth [5]: 77.3; Weight of tumor [5]: 0.5; weight end [5]: 18.3; weight start [5]: 18.2; inhibitive effect on mouse transplant tumor (in words) [6]: good inhibitive effect; also recorded: significant effect; Inhibition of tumor growth [6]: 73.2; Weight of tumor [6]: 0.7; weight end [6]: 18.3; weight start [6]: 18.2
CC(=O)OCC1OC(OP(=O)(NCCCl)NCCCl)CC(Br)C1OC(C)=O (single isomer, unassigned) [Compound 5] | 2120 | 301 | 76.4 | 0.6 | 18.6 | 18.3 | good inhibitive effect; also recorded: significant effect | good inhibitive effect; also recorded: significant effect | 83.6 | 0.4 | 18.6 | 18.3 | good inhibitive effect; also recorded: significant effect | 75.7 | 0.6 | 18.6 | 18.3 | good inhibitive effect; also recorded: significant effect | 74.9 | 0.7 | weight end (05-732 human bone tumor): 18.6; weight start (05-732 human bone tumor): 18.3; inhibitive effect on mouse transplant tumor (in words) [5]: good inhibitive effect; also recorded: significant effect; Inhibition of tumor growth [5]: 81.5; Weight of tumor [5]: 0.4; weight end [5]: 18.6; weight start [5]: 18.3; inhibitive effect on mouse transplant tumor (in words) [6]: good inhibitive effect; also recorded: significant effect; Inhibition of tumor growth [6]: 76.6; Weight of tumor [6]: 0.6; weight end [6]: 18.6; weight start [6]: 18.3
CC(=O)OCC1OC(OP(=O)(O)N(CCCl)CCCl)CC(Br)C1OC(C)=O (centres unmarked) [Compound 9] | 2140 | 307 | – | – | – | – | – | – | – | – | – | – | – | – | – | – | – | – | – | – | –
CC(=O)OCC1OC(OP(=O)(O)N(CCCl)CCCl)C(Br)CC1OC(C)=O (centres unmarked) [Compound 11] | 2030 | 323 | – | – | – | – | – | – | – | – | – | – | – | – | – | – | – | – | – | – | –
